The values below come from patent US8663658B2, “Revaprazan-containing solid dispersion and process for the preparation thereof” (Yuhan Corporation, priority 2006, dated 2014).

The conditions of data set [1]: background art; cited from earlier work.
Data set [2] in a line: Solubility of revaprazan-containing solid dispersion in purified water. Type of data set: physicochemical. Conditions: thermodynamic from solid, 25° C., solid dispersion containing 1 g revaprazan in 50 ml, stirred up to 6 hours, UV 270 nm. The protocol: Solubility of a revaprazan-containing solid dispersion was measured in purified water. A solid dispersion containing 1 g of revaprazan was added to a beaker containing 50 ml of purified water, which was then strongly stirred using a magnetic stirrer at 25° C. in a water bath for 6 hours. After 1, 2, and 6 hours, each sample was collected and filtered using a 0.45 μm filter. The filtrate was diluted with methanol having such an amount that absorbance of the filtrate is in the range from 0.2 to 1.0. Then, absorbance of the diluted filtrate was measured at 270 nm using a UV spectrophotometer (Agilent 8453, Agilent technologies, USA). From the obtained absorbance value, concentrations of revaprazan were obtained using a standard curve.
About 20 mg of revaprazan standard was dissolved in methanol until the total volume of the solution reached 10 ml. 1 ml of the resultant solution was added to a 100 ml flask and then purified water was added thereto to obtain a standard stock solution. The standard stock solution was diluted with purified water to obtain 2 μg/ml, 5 μg/ml, 8 μg/ml, and 10 μg/ml of standard solution. Each absorbance of the standard solutions was measured at an absorption maximum wavelength of 270 nm to obtain a standard curve. The standard curve was moderately linear passing through almost (0.0) (coefficient of correlation r^2>0.98).

The nature of data set [3]: Adhesiveness and agglutination test (Carr's index from bulk and tapped density). Type of data set: physicochemical. The method, then: The bulk density and tapped density of revaprazan powder and the surface-modified solid dispersions prepared according to Examples 3 and 6 were measured and their Carr's indexes were obtained in order to measure flowability thereof. About 3 g of a solid dispersion was carefully added to a plastic measuring cylinder and the volume thereof was measured to obtain the bulk density. And then, this was subjected to tapping 3,000 times using a tapped density meter to measure the volume and the tapped density was obtained. From the obtained bulk density and tapped density, Carr's index was calculated in order to evaluate flowability.

SMILES strings stand for the structures. Values after ≈ are worked out from the molar mass of the structure shown. Like-named read-outs stand apart in the source and are kept apart here. Bounds are passed on as bounds.

In the case of `Cc1nc(Nc2ccc(F)cc2)nc(N2CCc3ccccc3C2C)c1C` (stereo not shown) [Revaprazan powder, 5,6-dimethyl-2-(4-fluorophenylamino)-4-(1-methyl-1,2,3,4-tetrahydroisoquinolin-2-yl)pyrimidine], the water-solubility entry in data set [1] was “less than 0.2 mg/mL”. Besides, the concentration in solution in data set [2] (solubility) was 173 µg/mL (≈ 477 µM). The “Carr's index” value is ≥ 40% in data set [3]; 41.2 in data set [3] (from bulk density and tapped density (3,000 taps), flowability).
